Assay results: ChEMBL document CHEMBL1201862, “PubChem BioAssay data set” (2004)
Calls of active or inactive are those of the source.

Tests used:
Prothrombin = Prothrombin (Homo sapiens, UniProt P00734); assay: Thrombin 1536 HTS Dose Response Confirmation. [Related pubchem assays: 1046 (Thrombin 1536 HTS; hits were confirmed in this assay)]; type: functional
Kallikrein-7 = Kallikrein-7 (Homo sapiens, UniProt P49862); assay: Fluorescence Intensity-based biochemical primary high throughput dose response assay to identify activators of kallikrein-7 (K7) zymogen.
Chain of Kallikrein-7 (P49862 whole entry, the tested form may be a part): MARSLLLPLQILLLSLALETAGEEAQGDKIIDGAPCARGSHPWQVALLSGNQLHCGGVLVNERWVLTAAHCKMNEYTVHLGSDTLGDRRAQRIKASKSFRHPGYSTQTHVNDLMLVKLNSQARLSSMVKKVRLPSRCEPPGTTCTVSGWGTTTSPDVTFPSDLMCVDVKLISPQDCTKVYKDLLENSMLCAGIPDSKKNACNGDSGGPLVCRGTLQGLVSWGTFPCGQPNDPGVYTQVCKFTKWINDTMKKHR

[1] = ZM109 Env clade C HIV-1 fusion inhibitors, dose response, HeLa effector, CEM target cells, luciferase, cherry-pick (AID 652058); type: functional, cell-based
[2] = off-target signal loss in HeLa-CEM21 co-culture – HeLa F-luc CTL cells, cherry-picked, counter-screen for HIV-1 Env fusion inhibitor project, dose response (AID 652040); type: functional, cell-based;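 further: potency for signal decrease marking cytotoxic or nonspecific inhibition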
[3] = CEM21 lymphoblast cell cytotoxicity, dose response, cytotoxicity control for viral fusion inhibitor project, CellTiter-Glo luminescence, cherry-picked (AID 652042); type: functional, cell-based;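 further: potency for signal decrease meaning cytotoxicity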
[4] = inhibitors of clade B AD8 Env fusion, dose response, cell-based, cherry-pick (AID 652062); type: functional;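 further: luciferase signal from cell-cell fusion driven by HIV-1 clade B AD8 Env; potency is for inhibitors of fusion seen as a drop in luminescence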
[5] = inhibitors of HIV Env-driven cell fusion, dose response, cherry-pick (AID 652057); type: functional, cell-based
H4 = assay: Luminescence Cell-Based Dose Response HTS to Identify Activators of 5'UTR Stem-Loop Driven Prion Protein mRNA Translation in H4 Neuroglioblastoma Cells. [Related pubchem assays: 1829 (Project Summary), 1814 (Primary HTS)]; type: functional; details: Homo sapiens
[6] = Luminescence Cell-Based Dose Response HTS to Identify Activators of Luciferase Translation or Activity in H4 […] Cells. [Related pubchem assays: 1829 (Project Summary), 1814 (Primary HTS)]; type: functional
[7] = Luminescence Cell-Based Dose Confirmation HTS to Identify Activators of 5'UTR Stem-Loop Driven Alpha-Synuclein mRNA Translation in H4 Neuroglioblastoma Cells. [Related pubchem assays: 1829 (Project Summary), 1814 (Primary HTS)]; type: functional
Vero [8] = assay: cells; type: functional; details: Chlorocebus sabaeus
Vero [9] = assay: host cell cytotoxicity of antiviral hits, dose response, cytotoxicity control for West Nile virus antiviral project, secondary assay (AID 1650); type: functional; details: Chlorocebus sabaeus
[10] = Luminescence Cell-Based Dose Retest to Confirm Inhibitors of Cancer Stem Cells. [Related pubchem assays (depositor defined):AID2717, AID2721]; type: functional; details: Homo sapiens
Nonstructural protein 1 = Nonstructural protein 1 (Influenza A virus, UniProt Q194T2); type: functional, Influenza A virus (A/California/07/2009(H1N1))
Chain of Nonstructural protein 1 (Q194T2 whole entry): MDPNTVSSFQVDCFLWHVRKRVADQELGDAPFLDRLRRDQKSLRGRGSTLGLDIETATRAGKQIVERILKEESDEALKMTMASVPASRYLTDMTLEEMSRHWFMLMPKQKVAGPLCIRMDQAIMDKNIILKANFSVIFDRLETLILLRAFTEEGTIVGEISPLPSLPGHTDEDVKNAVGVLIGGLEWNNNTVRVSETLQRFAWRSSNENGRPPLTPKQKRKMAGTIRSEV

[11] = cytotoxicity toward NIH3T3 fibroblasts, dose response, counter-screen, cell-based, ATP luminescence, mouse fibroblasts (AID 2010); type: functional;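 further: cells exposed to compound for about 90 hours before reading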
[12] = inhibitors of intracellular T. cruzi replication, confirmation, NIH3T3 host cells, beta-gal luminescence (AID 2044); type: functional, cell-based;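 further: intracellular parasites grown in NIH/3T3 mouse fibroblasts as host cells; luminescent beta-galactosidase reporter signal from transgenic T. cruzi replicating inside host cells; inhibitors lower the luminescence signal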
[13] = Jurkat T cell cytotoxicity, dose response, cytotoxicity control for P. falciparum gametocyte viability project, luminescence (AID 1117277); type: functional, cell-based;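 further: potency reflects loss of cellular ATP meaning fewer viable cells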
[14] = P. falciparum late gametocyte killing, dose response, luminescence (AID 1117278); type: functional, cell-based;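 further: gametocytes exposed to compound for 24 hours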
[15] = target: T1, Carboxy-terminal domain RNA polymerase II polypeptide A small phosphatase 1 (Homo sapiens, UniProt Q9GZU7); assay: inhibitors of CTDSP1, concentration-response testing, biochemical assay, absorbance-based, actives from ultra-high-throughput screening (AID 540297); type: functional
T1 sequence (Q9GZU7 whole entry): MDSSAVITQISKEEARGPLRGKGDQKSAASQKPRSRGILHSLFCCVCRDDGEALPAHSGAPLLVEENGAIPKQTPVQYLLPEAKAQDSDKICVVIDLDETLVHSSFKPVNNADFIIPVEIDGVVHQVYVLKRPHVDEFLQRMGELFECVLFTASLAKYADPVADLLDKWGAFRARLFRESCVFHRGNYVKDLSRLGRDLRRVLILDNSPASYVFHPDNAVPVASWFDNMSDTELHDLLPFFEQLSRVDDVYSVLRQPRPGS

[16] = target: DNA dC->dU-editing enzyme APOBEC-3G (Homo sapiens, UniProt Q9HC16); type: functional;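 further: Dose-response counterscreen measuring inhibition of APOBEC3G DNA deaminase activity, run while confirming APOBEC3A inhibitors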
Chain of DNA dC->dU-editing enzyme APOBEC-3G (Q9HC16 whole entry): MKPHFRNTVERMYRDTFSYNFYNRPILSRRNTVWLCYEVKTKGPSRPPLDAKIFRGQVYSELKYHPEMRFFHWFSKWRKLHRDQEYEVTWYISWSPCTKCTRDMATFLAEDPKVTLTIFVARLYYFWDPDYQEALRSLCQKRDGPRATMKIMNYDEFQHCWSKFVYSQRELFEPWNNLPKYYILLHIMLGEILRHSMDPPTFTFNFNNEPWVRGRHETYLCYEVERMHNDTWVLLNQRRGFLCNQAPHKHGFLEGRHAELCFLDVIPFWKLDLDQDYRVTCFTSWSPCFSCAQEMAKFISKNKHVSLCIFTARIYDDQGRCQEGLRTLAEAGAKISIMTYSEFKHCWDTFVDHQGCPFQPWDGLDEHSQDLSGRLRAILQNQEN

Cytochrome P450 2D6 = Cytochrome P450 2D6 (Homo sapiens, UniProt P10635);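 further: CYP2D6 member of a cytochrome P450 panel assay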
Chain of Cytochrome P450 2D6 (P10635 whole entry): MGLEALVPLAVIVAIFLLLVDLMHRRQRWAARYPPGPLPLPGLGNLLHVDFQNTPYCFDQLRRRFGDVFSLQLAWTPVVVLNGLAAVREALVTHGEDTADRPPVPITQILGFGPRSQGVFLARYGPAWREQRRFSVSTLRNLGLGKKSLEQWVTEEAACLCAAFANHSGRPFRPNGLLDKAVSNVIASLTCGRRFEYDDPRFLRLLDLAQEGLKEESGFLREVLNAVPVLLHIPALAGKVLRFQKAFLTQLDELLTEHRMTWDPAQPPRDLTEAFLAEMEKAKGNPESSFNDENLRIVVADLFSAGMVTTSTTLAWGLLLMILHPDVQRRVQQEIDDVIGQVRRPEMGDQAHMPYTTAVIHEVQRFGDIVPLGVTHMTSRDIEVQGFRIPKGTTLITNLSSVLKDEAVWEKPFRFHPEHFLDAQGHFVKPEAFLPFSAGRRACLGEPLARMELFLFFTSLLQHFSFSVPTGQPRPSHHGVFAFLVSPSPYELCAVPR

[17] = target: DNA dC->dU-editing enzyme APOBEC-3A (Homo sapiens, UniProt P31941); assay: Dose Response confirmation of small molecule APOBEC3A DNA Deaminase Inhibitors via a fluorescence-based single-stranded DNA deaminase assay. [Related pubchem assays (depositor defined):AID493011, AID493024]; type: functional
Chain of DNA dC->dU-editing enzyme APOBEC-3A (P31941 whole entry): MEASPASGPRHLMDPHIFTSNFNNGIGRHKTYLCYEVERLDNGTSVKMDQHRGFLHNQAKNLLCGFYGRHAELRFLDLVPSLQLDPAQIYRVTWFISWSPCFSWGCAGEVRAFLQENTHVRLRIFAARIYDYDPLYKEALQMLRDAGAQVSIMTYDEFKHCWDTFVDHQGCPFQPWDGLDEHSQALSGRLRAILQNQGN

Beta-galactosidase [18] = target: T2, Beta-galactosidase (Escherichia coli, UniProt Q8VNN2); assay: beta-galactosidase enzyme inhibitors and activators, dose response, artefact control for CCR6 antagonist project, biochemical, E. coli enzyme, set 3 (AID 504712); type: functional
T2 sequence (Q8VNN2 whole entry): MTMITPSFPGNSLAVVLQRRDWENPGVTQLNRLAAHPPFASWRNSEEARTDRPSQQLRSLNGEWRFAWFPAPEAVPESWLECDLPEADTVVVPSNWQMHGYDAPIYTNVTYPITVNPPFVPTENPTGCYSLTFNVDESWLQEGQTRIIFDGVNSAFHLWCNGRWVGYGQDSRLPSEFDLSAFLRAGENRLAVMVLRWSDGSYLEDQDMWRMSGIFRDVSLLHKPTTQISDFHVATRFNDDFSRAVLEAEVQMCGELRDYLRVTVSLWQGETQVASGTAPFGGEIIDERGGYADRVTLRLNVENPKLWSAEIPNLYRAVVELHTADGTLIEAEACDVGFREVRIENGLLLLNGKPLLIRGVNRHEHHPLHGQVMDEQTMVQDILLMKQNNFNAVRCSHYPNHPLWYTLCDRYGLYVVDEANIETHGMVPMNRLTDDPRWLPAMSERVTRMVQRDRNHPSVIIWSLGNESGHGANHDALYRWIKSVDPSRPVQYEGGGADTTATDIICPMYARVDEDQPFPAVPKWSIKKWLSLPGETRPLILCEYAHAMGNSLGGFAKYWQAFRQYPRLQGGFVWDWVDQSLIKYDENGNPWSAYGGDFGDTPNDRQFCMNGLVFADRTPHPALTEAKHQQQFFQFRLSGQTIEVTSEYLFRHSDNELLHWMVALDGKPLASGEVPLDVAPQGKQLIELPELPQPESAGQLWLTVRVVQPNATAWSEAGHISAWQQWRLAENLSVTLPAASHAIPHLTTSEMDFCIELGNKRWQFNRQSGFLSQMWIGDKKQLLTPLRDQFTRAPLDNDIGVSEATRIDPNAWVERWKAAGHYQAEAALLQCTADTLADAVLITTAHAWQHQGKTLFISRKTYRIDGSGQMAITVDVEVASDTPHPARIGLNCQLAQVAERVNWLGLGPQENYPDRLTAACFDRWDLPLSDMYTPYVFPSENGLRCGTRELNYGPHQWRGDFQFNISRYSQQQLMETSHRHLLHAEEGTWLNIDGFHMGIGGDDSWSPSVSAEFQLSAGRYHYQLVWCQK

Beta-galactosidase [19] = target: T2, Beta-galactosidase; assay: Dose response counterscreen for EBI2 assay utilizing the enzyme, b-galactosidase.; type: functional
[20] = target: Heat shock protein HSP 90-alpha (Homo sapiens, UniProt P07900); type: functional, organism-based
Aminopeptidase N = target: T3, Aminopeptidase N (Plasmodium falciparum FcB1/Columbia, UniProt O96935); assay: P. falciparum M1AAP inhibitors, biochemical, fluorogenic H-Leu-NHMec substrate, 1536-well (AID 1445); set-up: species or system Plasmodium falciparum 3D7, 3D7
T3 sequence (O96935 whole entry): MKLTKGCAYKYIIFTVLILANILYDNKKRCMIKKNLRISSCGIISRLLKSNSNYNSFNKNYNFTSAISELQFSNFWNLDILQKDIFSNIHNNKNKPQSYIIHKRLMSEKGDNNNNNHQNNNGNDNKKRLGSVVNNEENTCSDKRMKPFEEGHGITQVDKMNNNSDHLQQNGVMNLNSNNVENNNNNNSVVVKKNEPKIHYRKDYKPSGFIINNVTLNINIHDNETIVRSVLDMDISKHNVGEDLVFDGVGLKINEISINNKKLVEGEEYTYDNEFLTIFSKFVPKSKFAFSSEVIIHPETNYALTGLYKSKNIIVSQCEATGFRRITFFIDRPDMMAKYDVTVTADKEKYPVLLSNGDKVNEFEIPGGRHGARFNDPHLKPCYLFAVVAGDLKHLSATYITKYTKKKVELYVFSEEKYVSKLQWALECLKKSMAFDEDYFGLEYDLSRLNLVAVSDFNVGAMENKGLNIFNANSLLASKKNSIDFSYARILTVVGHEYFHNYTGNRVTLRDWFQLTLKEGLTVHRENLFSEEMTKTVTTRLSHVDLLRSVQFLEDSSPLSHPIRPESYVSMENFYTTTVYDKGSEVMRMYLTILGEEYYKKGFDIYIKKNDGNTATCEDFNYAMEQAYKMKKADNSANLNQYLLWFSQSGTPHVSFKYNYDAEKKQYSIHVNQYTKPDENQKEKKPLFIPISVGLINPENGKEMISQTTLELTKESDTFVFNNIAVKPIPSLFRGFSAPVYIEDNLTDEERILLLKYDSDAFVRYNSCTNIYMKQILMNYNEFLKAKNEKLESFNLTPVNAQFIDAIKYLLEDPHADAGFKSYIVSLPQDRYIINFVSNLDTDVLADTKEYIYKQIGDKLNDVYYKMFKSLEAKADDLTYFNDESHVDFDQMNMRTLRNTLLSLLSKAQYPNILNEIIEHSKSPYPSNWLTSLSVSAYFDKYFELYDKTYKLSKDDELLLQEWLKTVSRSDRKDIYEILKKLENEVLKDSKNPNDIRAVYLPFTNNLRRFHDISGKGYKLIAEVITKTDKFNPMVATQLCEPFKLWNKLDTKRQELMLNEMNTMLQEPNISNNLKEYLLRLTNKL

Protein Tat = target: T4, Protein Tat (Human immunodeficiency virus type 1 group M subtype B (isolate HXB2)(HIV-1), UniProt P04608); type: functional;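 further: tat binding to TAR RNA read out by fluorescence polarization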
T4 sequence (P04608 whole entry): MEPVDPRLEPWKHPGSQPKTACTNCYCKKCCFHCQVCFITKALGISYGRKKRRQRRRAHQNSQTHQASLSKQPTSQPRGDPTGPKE

Cytochrome P450 2C19 = Cytochrome P450 2C19 (Homo sapiens, UniProt P33261); assay: Cytochrome panel assay with activity outcomes. Panel member name: p450-cyp2c19 Compounds with AC50 equal or less than 10 uM are considered active; type: functional; details: read-out: AC50
Chain of Cytochrome P450 2C19 (P33261 whole entry): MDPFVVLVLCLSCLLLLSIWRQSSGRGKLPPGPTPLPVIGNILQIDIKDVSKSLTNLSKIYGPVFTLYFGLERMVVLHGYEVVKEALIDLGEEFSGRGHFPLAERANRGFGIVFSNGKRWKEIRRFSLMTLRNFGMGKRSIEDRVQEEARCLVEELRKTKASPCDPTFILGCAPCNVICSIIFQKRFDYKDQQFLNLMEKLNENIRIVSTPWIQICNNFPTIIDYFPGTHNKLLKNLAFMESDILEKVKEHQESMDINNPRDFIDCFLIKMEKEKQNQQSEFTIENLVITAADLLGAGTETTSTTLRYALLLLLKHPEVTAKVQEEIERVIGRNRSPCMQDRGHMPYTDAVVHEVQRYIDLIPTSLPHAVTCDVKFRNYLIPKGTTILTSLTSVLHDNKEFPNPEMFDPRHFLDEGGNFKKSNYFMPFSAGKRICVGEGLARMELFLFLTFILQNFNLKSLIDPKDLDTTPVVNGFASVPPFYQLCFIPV

[21] = IGROV1 ovarian cancer cell cytotoxicity, dose response, PAX8 inhibitor project, plate reader, dry powder samples (AID 743043); type: functional, cell-based; details: IGROV-1
[22] = cytotoxicity in OVCAR8 ovarian cancer cells, dose response, PAX8 project, cell-based, plate reader, dry powder samples (AID 743197); type: functional; details: OVCAR-8
Paired box protein Pax-8 = Paired box protein Pax-8 (Homo sapiens, UniProt Q06710); assay: inhibitors of PAX8-driven TPO luciferase reporter, dose response, RMG-I cells, cherry-pick (AID 687027); type: functional, cell-based;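 further: luciferase reporter driven by Pax8 target thyroperoxidase promoter measured by SteadyGlo luminescence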
Chain of Paired box protein Pax-8 (Q06710 whole entry): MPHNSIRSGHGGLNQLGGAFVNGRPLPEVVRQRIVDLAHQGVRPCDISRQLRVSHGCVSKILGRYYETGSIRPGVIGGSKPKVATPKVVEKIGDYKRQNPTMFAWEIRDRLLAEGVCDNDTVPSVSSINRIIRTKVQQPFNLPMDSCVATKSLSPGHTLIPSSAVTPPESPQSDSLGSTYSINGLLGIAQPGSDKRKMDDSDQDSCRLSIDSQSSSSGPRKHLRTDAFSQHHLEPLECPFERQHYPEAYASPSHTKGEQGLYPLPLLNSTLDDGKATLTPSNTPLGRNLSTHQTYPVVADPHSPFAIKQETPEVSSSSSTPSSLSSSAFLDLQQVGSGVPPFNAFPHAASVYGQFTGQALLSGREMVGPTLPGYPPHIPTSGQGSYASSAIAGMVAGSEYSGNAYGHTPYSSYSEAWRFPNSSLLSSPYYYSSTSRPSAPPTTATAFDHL

[23] = NIH:OVCAR-3 ovarian cancer cell cytotoxicity, dose response, PAX8 inhibitor project, plate reader, dry powder samples (AID 743044); type: functional, cell-based

O=C(c1ccco1)n1nc(-c2ccco2)nc1SCc1ccccc1
IC50 (Prothrombin): 0.201 µM (active)

CCOC(=O)C1CCN(S(=O)(=O)c2cccc(-c3cn4cccnc4n3)c2)CC1
EC50 (Kallikrein-7): > 69.5 µM (inactive)

Cc1oc(-c2cccc(Cl)c2)nc1CN1CCCC(C(=O)NC(C)c2ccc3c(c2)OCCO3)C1 (centres undefined)
AC50 [1]: 3.47 µM (active) | AC50 [2]: 3.92 µM (active) | AC50 [3]: 54.5 µM (active) | AC50 [4]: 4.68 µM (active) | AC50 [5]: 2.58 µM (active)

CC1=NN(c2ccccc2)C(=O)/C1=C\C=C\c1ccccc1
EC50 (H4): > 120 µM (not active) | EC50 [6]: 27.3 µM (active) | EC50 [7]: > 120 µM (not active) | CC50 (Vero [8]): 12.1 µM (active) | CC50 (Vero [9]): 26.8 µM (active) | AC50 [10]: 4.82 µM (active)

COc1ccc(-n2nc([N+](=O)[O-])c(NCCC3=CCCCC3)[n+]2[O-])cc1
IC50 (Nonstructural protein 1): 41.3 µM (active) | EC50 [11]: > 60 µM (not active) | EC50 [12]: 0.534 µM (active)

CCN(CC)c1ccc(NC(=O)CN2CCN(CC(=O)Nc3ccccc3OC)CC2)cc1
IC50 (Nonstructural protein 1): 79.6 µM (active)

NCCCN1CCOCC1
IC50 [13]: > 83.4 µM (inactive) | IC50 [14]: > 109 µM (inactive)

C[N+]1(CC(=O)OCCCc2ccccc2)CCOCC1
IC50 [15]: 6.39 µM (active) | IC50 [16]: 1.93 µM (active) | AC50 (Cytochrome P450 2D6): 12.6 µM (inconclusive) | IC50 [17]: 1.27 µM (active)

CC(=NNc1ccc2ccccc2n1)c1ccccc1O
IC50 (Beta-galactosidase [18]): > 66.6 µM (inactive)

COc1ccc(C(=O)/C=C2\C(=O)Nc3ccc(Br)cc32)cc1
CC50 (Vero [8]): 14.9 µM (active) | IC50 (Beta-galactosidase [19]): 71.6 µM (inactive) | AC50 [20]: 1.59 µM (active)

CCCCN(C(=O)c1cnccn1)c1c(N)n(CCC)c(=O)[nH]c1=O
IC50 [16]: 15.5 µM (active) | IC50 [17]: 13.7 µM (active)

CS(=O)(=O)N(CC(=O)N1CCC(C(N)=O)CC1)C1CCCCC1
IC50 [13]: > 83.3 µM (inactive) | IC50 [14]: > 109 µM (inactive)

CC(=O)/N=C1\C(=O)N(C)c2cccc3c(O)c4ccccc4c1c23
IC50 (Aminopeptidase N): 27.9 µM (active) | IC50 (Protein Tat): > 100 µM (active) | AC50 (Cytochrome P450 2C19): 14.1 µM (inconclusive)

C[C@H]1CCCCO[C@@H](CN(C)S(=O)(=O)c2ccccc2)[C@@H](C)CN([C@@H](C)CO)C(=O)c2cc(NC(=O)Nc3ccc(C(F)(F)F)cc3)ccc2O1
AC50 [21]: 53.1 µM (active) | AC50 [22]: 52.4 µM (active) | AC50 (Paired box protein Pax-8): 6.6 µM (active) | AC50 [23]: 19.4 µM (active)

CC(O)C(=O)N/N=C/c1cccc2ccccc12 (centres undefined)
IC50 (Prothrombin): 48.8 µM (active)
